# Experimental data from patent publication US10953012B2, “Heterocyclic compounds for the inhibition of pask” (BioEnergenix LLC, priority 2011, dated 2021).
# Assays:
# hPASK (full length) = hPASK (full length) (Homo sapiens (Human), UniProt Q96RG2); experiment: PAS Kinase Luminescence Assay (Kinase-Glo), full length; type: biochemical
# Description: (§1) PAS Kinase Luminescence Assay
# (§2) One assay for purified hPASK activity utilizes the Kinase-Glo Luminescent Kinase Assay (Promega), which quantifies the amount of ATP remaining in solution following kinase reaction. The assay is carried out in a 96-well plate format and is performed by adding a volume of Kinase-Glo Reagent (Promega, catalog #V3771) equal to the volume of solution in the well of a completed kinase reaction. Kinase-Glo reagent contains Luciferase and its substrate. After addition to a kinase reaction it allows to measure luminescence. The amount of ATP left in solution at the time of Kinase-Glo Plus addition is directly proportional to the luminescence that is measured in each well, and inversely correlated with kinase activity.
# (§3) Purified hPASK from insect cells (0.02 μg) is added to a 50 μL reaction mix containing 40 mM HEPES (pH 7.0), 100 mM KCl, 5 mM MgCl2, 1 mM DTT and 1 μg of MBP protein. Inhibitory compounds are then added and the mixture is incubated for 10 min at 25° C. before adding 5 μL of ATP (at desired concentration). The reaction is allowed to proceed at 25° C. for 1 hour before adding 50 μL of Kinase-Glo reagent. The luminescence is measured as soon as 10 minutes after Kinase-Glo reagent is added.
# (§4) Results are shown below in Table 1, where NT means not tested.
# hPASK (kinase domain) = hPASK (kinase domain) (Homo sapiens (Human), UniProt Q96RG2); experiment: PAS Kinase Luminescence Assay (Kinase-Glo), kinase domain; type: biochemical
# Description: as §1, §2, §3, §4
# CK2a2 = CK2a2 (Homo sapiens (Human), UniProt P19784); experiment: Biochemical Assay for CK2 Activity; conditions: 33P-ATP radiochemical assay; read-out: IC50 CK2 a2
# In short: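 GST-tagged full-length human CK2a2 from insect cells (1.2 nM) with 20 μM RRRDDDSDDD peptide, in pH 7.5 HEPES buffer with MgCl2, DTT and 1% DMSO. Reactions started with ³³P-ATP were run for 120 min at room temperature. Substrate phosphorylation was measured by P81 phosphocellulose filter binding and scintillation counting.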
# PASK [1] = target: PASK (UniProt #Q96RG2; residues 879-1323) (Homo sapiens (Human), UniProt Q96RG2); experiment: PASK ATP Radiochemical Assay; type: biochemical; conditions: 33P-ATP radiochemical assay; read-out: IC50 Kinase Domain
# In short: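 Radiometric kinase assay: GST-tagged PASK (5 nM final) from insect cells with Myelin Basic Protein (20 μM) in HEPES pH 7.5 buffer, 1% DMSO; reaction started with ^33P-ATP, 120 min at room temperature. Substrate phosphorylation captured on P81 paper and read by scintillation counting.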
# PASK [2] = target: PASK (Homo sapiens (Human), UniProt Q96RG2); experiment: PAS Kinase FRET Assay; type: biochemical; conditions: TR-FRET assay; read-out: IC50 Kinase Domain
# In short: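 Reaction buffer: 50 mM HEPES, 10 mM MgCl2, 1 mM EGTA, 2 mM DTT, 0.01% Tween-20. Test compounds (eleven-point series prepared at 4× final) preceded PASK and substrate/ATP. Reaction ran 2 h at 25 °C in the dark, then stopped. Phospho-ULight peptide detected by Eu-antibody TR-FRET, 665/615 nm ratio.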
# Chain of hPASK (kinase domain) (Q96RG2 999-1251): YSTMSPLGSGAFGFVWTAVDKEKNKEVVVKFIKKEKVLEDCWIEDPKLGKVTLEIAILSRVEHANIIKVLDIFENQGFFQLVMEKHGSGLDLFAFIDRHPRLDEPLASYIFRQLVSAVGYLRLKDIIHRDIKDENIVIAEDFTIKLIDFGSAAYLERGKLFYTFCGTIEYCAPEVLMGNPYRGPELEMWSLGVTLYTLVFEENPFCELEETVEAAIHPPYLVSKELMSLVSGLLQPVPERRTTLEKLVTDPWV
# Chain of PASK (Homo sapiens (Human), UniProt Q96RG2) (Q96RG2 999-1251): as above
# Chain of hPASK (full length) (Q96RG2 whole entry): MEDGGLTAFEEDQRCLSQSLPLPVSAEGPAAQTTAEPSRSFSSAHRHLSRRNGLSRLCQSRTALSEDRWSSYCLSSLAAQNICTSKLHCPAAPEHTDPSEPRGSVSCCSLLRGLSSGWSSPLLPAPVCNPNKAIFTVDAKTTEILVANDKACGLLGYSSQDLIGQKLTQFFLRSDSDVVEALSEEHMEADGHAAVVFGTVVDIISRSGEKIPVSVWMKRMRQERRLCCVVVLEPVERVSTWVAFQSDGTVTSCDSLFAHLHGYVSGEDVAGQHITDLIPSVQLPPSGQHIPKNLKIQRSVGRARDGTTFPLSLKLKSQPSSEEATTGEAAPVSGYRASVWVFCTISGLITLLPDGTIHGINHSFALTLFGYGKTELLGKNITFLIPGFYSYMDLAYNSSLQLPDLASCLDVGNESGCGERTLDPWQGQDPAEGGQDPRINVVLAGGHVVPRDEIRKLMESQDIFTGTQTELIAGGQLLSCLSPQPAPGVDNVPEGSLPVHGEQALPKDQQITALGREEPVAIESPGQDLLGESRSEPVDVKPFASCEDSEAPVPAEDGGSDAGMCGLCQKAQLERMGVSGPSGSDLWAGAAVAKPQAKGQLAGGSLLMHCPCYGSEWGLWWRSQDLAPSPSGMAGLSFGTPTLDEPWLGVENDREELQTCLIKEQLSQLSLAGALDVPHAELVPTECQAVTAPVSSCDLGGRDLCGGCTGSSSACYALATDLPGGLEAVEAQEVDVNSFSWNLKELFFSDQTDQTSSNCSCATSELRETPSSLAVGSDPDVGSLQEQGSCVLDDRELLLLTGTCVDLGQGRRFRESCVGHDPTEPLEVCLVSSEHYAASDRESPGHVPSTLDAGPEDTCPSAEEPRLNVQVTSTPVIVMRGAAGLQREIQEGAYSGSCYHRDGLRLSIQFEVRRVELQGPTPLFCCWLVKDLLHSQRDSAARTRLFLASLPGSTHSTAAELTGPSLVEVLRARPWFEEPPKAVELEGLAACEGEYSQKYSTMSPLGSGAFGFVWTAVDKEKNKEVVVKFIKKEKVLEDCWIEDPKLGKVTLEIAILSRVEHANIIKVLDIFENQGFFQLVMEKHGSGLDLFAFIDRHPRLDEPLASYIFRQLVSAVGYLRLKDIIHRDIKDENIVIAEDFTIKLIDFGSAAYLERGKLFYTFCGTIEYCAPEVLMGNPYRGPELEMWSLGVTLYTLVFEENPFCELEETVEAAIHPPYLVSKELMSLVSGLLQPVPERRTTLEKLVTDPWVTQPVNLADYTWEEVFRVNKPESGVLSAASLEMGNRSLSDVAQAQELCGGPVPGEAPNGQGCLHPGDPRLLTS
# Chain of PASK (UniProt #Q96RG2; residues 879-1323) (Homo sapiens (Human), UniProt Q96RG2) (Q96RG2 879-1323): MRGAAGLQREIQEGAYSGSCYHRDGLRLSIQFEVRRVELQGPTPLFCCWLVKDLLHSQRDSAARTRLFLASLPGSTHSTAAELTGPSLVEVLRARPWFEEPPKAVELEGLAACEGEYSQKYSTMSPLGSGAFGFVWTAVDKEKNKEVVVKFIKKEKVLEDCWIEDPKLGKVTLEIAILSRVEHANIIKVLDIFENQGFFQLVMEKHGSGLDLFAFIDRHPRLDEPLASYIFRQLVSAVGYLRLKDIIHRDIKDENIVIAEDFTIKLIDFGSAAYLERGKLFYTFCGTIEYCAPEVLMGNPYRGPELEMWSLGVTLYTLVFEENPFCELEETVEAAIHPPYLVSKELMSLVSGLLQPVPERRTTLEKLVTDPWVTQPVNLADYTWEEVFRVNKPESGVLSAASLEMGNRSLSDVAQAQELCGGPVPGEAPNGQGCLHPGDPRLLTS
# Chain of CK2a2 (P19784 whole entry): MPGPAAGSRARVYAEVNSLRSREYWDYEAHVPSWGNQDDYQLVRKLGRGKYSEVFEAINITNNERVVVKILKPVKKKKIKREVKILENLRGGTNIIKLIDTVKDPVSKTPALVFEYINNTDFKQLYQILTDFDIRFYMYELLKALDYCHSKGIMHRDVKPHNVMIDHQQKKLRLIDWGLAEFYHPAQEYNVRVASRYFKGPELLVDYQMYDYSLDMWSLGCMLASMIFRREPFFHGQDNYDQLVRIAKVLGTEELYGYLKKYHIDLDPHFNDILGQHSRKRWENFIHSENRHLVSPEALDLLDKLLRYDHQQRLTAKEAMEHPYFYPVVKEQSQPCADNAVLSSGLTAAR
IC50 (hPASK (full length)) [µM],IC50 (hPASK (kinase domain)) [µM],IC50 (CK2a2) [µM],IC50 (PASK [1]) [µM],IC50 (PASK [2]) [µM],SMILES
–,≥ 10,–,–,–,"COc1ccc(-c2c(C)nn3c(=O)cc(-c4ccccc4)[nH]c23)cc1 [Example 20, 3-(4-Methoxy-phenyl)-2-methyl-5-phenyl-4H-pyrazolo[1,5-a]pyrimidin-7-one]"
–,≤ 10,≤ 10,–,–,"O=c1cc(-c2ccc3c(c2)OCCO3)[nH]c2c(-c3ccccc3)cnn12 [Example 40, 5-(2,3-Dihydrobenzo[b][1,4]dioxin-6-yl)-3-phenylpyrazolo[1,5-a]pyrimidin-7(4H)-one]"
–,≤ 10,–,–,–,"Cc1nn2c(=O)cc(-c3ccc4c(c3)OCCO4)[nH]c2c1-c1ccccc1 [Example 41, 5-(2,3-Dihydrobenzo[b][1,4]dioxin-6-yl)-2-methyl-3-phenylpyrazolo[1,5-a]pyrimidin-7(4H)-one]"
–,≤ 10,–,–,–,"O=c1cc(-c2ccc3c(c2)OCO3)[nH]c2c(-c3ccccc3)cnn12 [Example 42, 5-(Benzo[d][1,3]dioxol-5-yl)-3-phenylpyrazolo[1,5-a]pyrimidin-7(4H)-one]"
–,≤ 10,≤ 10,–,–,"Cc1nn2c(=O)cc(-c3ccc4c(c3)OCO4)[nH]c2c1-c1ccccc1 [Example 43, 5-(Benzo[d][1,3]dioxol-5-yl)-2-methyl-3-phenylpyrazolo[1,5-a]pyrimidin-7(4H)-one]"
–,≤ 10,≤ 10,–,–,"O=c1cc(-c2ccc3c(c2)OCCO3)[nH]c2c(-c3ccccn3)cnn12 [Example 44, 5-(2,3-Dihydrobenzo[b][1,4]dioxin-6-yl)-3-(pyridin-2-yl)pyrazolo[1,5-a]pyrimidin-7(4H)-one]"
–,≤ 10,≤ 10,–,–,"O=c1cc(-c2ccc3c(c2)OCCO3)[nH]c2c(-c3cccnc3)cnn12 [Example 45, 5-(2,3-Dihydrobenzo[b][1,4]dioxin-6-yl)-3-(pyridin-3-yl)pyrazolo[1,5-a]pyrimidin-7(4H)-one]"
–,≤ 10,–,–,–,"O=c1cc(-c2ccc3c(c2)OCO3)[nH]c2c(-c3cccnc3)cnn12 [Example 46, 5-(Benzo[d][1,3]dioxol-5-yl)-3-(pyridin-3-yl)pyrazolo[1,5-a]pyrimidin-7(4H)-one]"
–,≤ 10,≤ 10,–,–,"Cc1nn2c(=O)cc(-c3ccc4c(c3)OCO4)[nH]c2c1-c1ccccn1 [Example 48, 5-(Benzo[d][1,3]dioxol-5-yl)-2-methyl-3-(pyridin-2-yl)pyrazolo[1,5-a]pyrimidin-7(4H)-one]"
–,≤ 10,–,–,–,"Cc1nn2c(=O)cc(-c3ccc4c(c3)OCO4)[nH]c2c1-c1cccnc1 [Example 49, 5-(Benzo[d][1,3]dioxol-5-yl)-2-methyl-3-(pyridin-3-yl)pyrazolo[1,5-a]pyrimidin-7(4H)-one]"
–,≤ 10,≤ 10,–,–,"Cc1nn2c(=O)cc(-c3ccc4c(c3)OCCO4)[nH]c2c1-c1ccccn1 [Example 50, 5-(2,3-Dihydrobenzo[b][1,4]dioxin-6-yl)-2-methyl-3-(pyridin-2-yl)pyrazolo[1,5-a]pyrimidin-7(4H)-one]"
–,≤ 10,≤ 10,–,–,"Cc1nn2c(=O)cc(-c3ccc4c(c3)OCCO4)[nH]c2c1-c1cccnc1 [Example 51, 5-(2,3-Dihydrobenzo[b][1,4]dioxin-6-yl)-2-methyl-3-(pyridin-3-yl)pyrazolo[1,5-a]pyrimidin-7(4H)-one]"
–,–,≤ 10,≤ 10,≤ 10,"CCCNC(=O)c1c(O)nn2c(=O)cc(-c3ccc4c(c3)OCO4)[nH]c12 [Example 227, 5-(Benzo[d][1,3]dioxol-5-yl)-2-hydroxy-7-oxo-N-propyl-4,7-dihydropyrazolo[1,5-a]pyrimidine-3-carboxamide]"
–,–,≤ 10,≤ 10,≤ 10,"COc1c(-c2cc(=O)n3nc(O)c(-c4ccccn4)c3[nH]2)ccc2c1OCO2 [Example 235, 2-Hydroxy-5-(4-methoxybenzo[d][1,3]dioxol-5-yl)-3-(pyridin-2-yl)pyrazolo[1,5-a]pyrimidin-7(4H)-one]"
–,–,≤ 10,≤ 10,≤ 10,"COc1c(-c2cc(=O)n3nc(C)c(-c4ccccn4)c3[nH]2)ccc2c1OCO2 [Example 237, 5-(4-Methoxybenzo[d][1,3]dioxol-5-yl)-2-methyl-3-(pyridin-2-yl)pyrazolo[1,5-a]pyrimidin-7(4H)-one]"

# More lines, now with the values behind:
SMILES,IC50 (hPASK (full length)) [µM],IC50 (hPASK (kinase domain)) [µM],IC50 (CK2a2) [µM],IC50 (PASK [1]) [µM],IC50 (PASK [2]) [µM]
"Cc1nn2c(=O)cc(-c3ccc([N+](=O)[O-])cc3)[nH]c2c1-c1ccc(Cl)cc1 [Example 1, 3-(4-Chloro-phenyl)-2-methyl-5-(4-nitro-phenyl)-4H-pyrazolo[1,5-a]pyrimidin-7-one]",≤ 10,≤ 10,–,–,–
"Cc1cc(=O)n2nc(-c3ccc(Cl)cc3)cc2[nH]1 [Example 2, 2-(4-Chloro-phenyl)-5-methyl-4H-pyrazolo[1,5-a]pyrimidin-7-one]",≤ 10,≥ 10,–,–,–
"Cc1[nH]c2c(-c3ccc(Cl)cc3)cnn2c(=O)c1Cc1ccccc1 [Example 3, 6-Benzyl-3-(4-chloro-phenyl)-5-methyl-4H-pyrazolo[1,5-a]pyrimidin-7-one]",≤ 10,≤ 10,–,–,–
"Cc1cc(=O)n2nc(-c3cccc(Br)c3)cc2[nH]1 [Example 4, 2-(3-Bromo-phenyl)-5-methyl-4H-pyrazolo[1,5-a]pyrimidin-7-one]",–,≤ 10,–,–,–
"O=c1cc(-c2ccccc2)[nH]c2c(-c3ccccn3)cnn12 [Example 52, 5-Phenyl-3-(pyridin-2-yl)pyrazolo[1,5-a]pyrimidin-7(4H)-one]",–,≤ 10,–,–,–
"Cc1nn2c(=O)cc(-c3ccc4cc[nH]c4c3)[nH]c2c1Cc1ccccc1 [Example 74, 3-Benzyl-5-(1H-indol-6-yl)-2-methylpyrazolo[1,5-a]pyrimidin-7(4H)-one]",–,≤ 10,≥ 10,≤ 10,–
"O=c1cc(-c2cccnc2)[nH]c2c(-c3ccc(F)cc3)cnn12 [Example 78, 3-(4-Fluorophenyl)-5-(pyridin-3-yl)pyrazolo[1,5-a]pyrimidin-7(4H)-one]",–,≤ 10,–,–,–
"CCCNC(=O)c1c(N)nn2c(=O)cc(-c3ccc(Cl)cc3)[nH]c12 [Example 225, 2-Amino-5-(4-chlorophenyl)-7-oxo-N-propyl-4,7-dihydropyrazolo[1,5-a]pyrimidine-3-carboxamide]",–,–,≤ 10,≤ 10,≤ 10
"COc1c(-c2cc(=O)n3nc(N)c(-c4ccccn4)c3[nH]2)ccc2c1OCO2 [Example 234, 2-Amino-5-(4-methoxybenzo[d][1,3]dioxol-5-yl)-3-(pyridin-2-yl)pyrazolo[1,5-a]pyrimidin-7(4H)-one]",–,–,≤ 10,≤ 10,≤ 10
"COc1cc2[nH]nnc2cc1-c1cc(=O)n2nc(N)c(-c3ccccn3)c2[nH]1 [Example 243, 2-Amino-5-(6-methoxy-1H-benzo[d][1,2,3]triazol-5-yl)-3-(pyridin-2-yl)pyrazolo[1,5-a]pyrimidin-7(4H)-one]",–,–,≥ 10,≤ 10,≤ 10
"COc1c(-c2cc(=O)n3ncc(-c4ccccn4)c3[nH]2)ccc2[nH]nnc12 [Example 245, 5-(4-Methoxy-1H-benzo[d][1,2,3]triazol-5-yl)-3-(pyridin-2-yl)pyrazolo[1,5-a]pyrimidin-7(4H)-one]",–,–,≤ 10,≤ 10,≤ 10
"O=c1cc(-c2cc3nn[nH]c3cc2F)[nH]c2c(-c3ccccn3)cnn12 [Example 249, 5-(6-Fluoro-1H-benzo[d][1,2,3]triazol-5-yl)-3-(pyridin-2-yl)pyrazolo[1,5-a]pyrimidin-7(4H)-one]",–,–,≤ 10,≤ 10,≤ 10
"O=c1cc(-c2ccc(-c3ncco3)cc2)[nH]c2c(-c3ccccn3)cnn12 [Example 254, 5-(4-(Oxazol-2-yl)phenyl)-3-(pyridin-2-yl)pyrazolo[1,5-a]pyrimidin-7(4H)-one]",–,–,≥ 10,≤ 10,≤ 10
"N#Cc1ccc(-c2cc(=O)n3ncc(-c4ccccn4)c3[nH]2)cc1 [Example 256, 4-(7-Oxo-3-(pyridin-2-yl)-4,7-dihydropyrazolo[1,5-a]pyrimidin-5-yl)benzonitrile]",–,–,≥ 10,≤ 10,≤ 10
